From PMC3199943, “Screening the MayBridge Rule of 3 Fragment Library for Compounds That Interact with the Trypanosoma brucei myo-Inositol-3-Phosphate Synthase and/or Show Trypanocidal Activity” (Molecular Biology International, 2011) come the findings set out here.

One test relates to A549 cells. Description: Cytotoxicity against A549 cells, Alamar Blue. Format: cell-based. The settings on record: Supplementary Table 1, compound 0.5 mM, percentage of controls (n=1); for viability at 500 µM: Homo sapiens, A549, 65 h. As to the method:
(§1) Cytotoxic effects against HeLa and A549 cells were determined in a similar manner. Briefly, the cells were cultured in DMEM supplemented with 10% FCS and 2 mM L-Glutamine. Cells were plated at initial cell concentration of 2 × 10^4 cells/well and incubated with the compounds for ~65 hours prior to addition of Alamar Blue solution for a further 5 hours.

In a further test the test system is HeLa cells. Description: cells. The conditions noted are these: for HeLa Cells Alamar Blue: Supplementary Table 1; for viability at 500 µM / CC50: Homo sapiens, HeLa; for viability at 500 µM: 65 h; for CC50: read-out: HeLa ED50. The method, then: as §1
Background: The colour change of resazurin is a common sign of viable cells or microbes.

Where [1] appears, read: compound 0.5 mM, percentage of controls, mean ± SD (n=3) or SE (n=2).
Where [2] appears, read: read-out: HeLa Cells Alamar Blue.

Where two headings read alike, the source gives them in different places.

Regarding `NCc1ccc2c(c1)OCCO2` [compound 306, 2,3‐dihydro‐1,4‐benzodioxin‐6‐ylmethylamine], the “A549 Cells Alamar Blue” value in the test on A549 cells is recorded as 72.7 percentage of controls. Moreover, the “HeLa Cells Alamar Blue” value in the test with HeLa cells (setting [1]) is 109.2 ± 5.6 percentage of controls.

Regarding `Nc1ccc2c(c1)OCCCO2` [compound 308, 3,4‐dihydro‐2H‐1,5‐benzodioxepin‐7‐amine], the “A549 Cells Alamar Blue” value in the test on A549 cells was 82.8 percentage of controls. Further, the “HeLa Cells Alamar Blue” value in the test with HeLa cells (setting [1]) is 98.7 ± 6.1 percentage of controls.

As to `NCC1COc2ccccc2O1` (stereo not drawn) [compound 309, 2,3‐dihydro‐1,4‐benzodioxin‐2‐ylmethylamine], the “A549 Cells Alamar Blue” value in the test on A549 cells was 68.9 percentage of controls. Moreover, the “HeLa Cells Alamar Blue” value with HeLa cells (setting [1]) is 12.3 ± 8.8 percentage of controls.

`Cn1c(=S)oc2ccccc21` [compound 310, 3‐methyl‐1,3‐benzoxazole‐2(3H)‐thione]: the viability at 500 µM in the test with A549 cells worked out at 104%; with HeLa cells (setting [2]) it was 103 ± 14.3%.

For `OCc1nc2ccccc2s1` [compound 312, 1,3‐benzothiazol‐2‐ylmethanol], the viability at 500 µM in the test on A549 cells is 64.4%; in the test with HeLa cells (setting [2]) it was 80.7 ± 16.2%.

Regarding `OCc1ccc(C(F)(F)F)o1` [compound 314, [5‐(trifluoromethyl)‐2‐furyl]methanol], the viability at 500 µM in the test with A549 cells was found to be 76.9%; with HeLa cells (setting [2]), 114 ± 8.2%.

Consider `Cn1nc(O)cc1C(F)(F)F` [compound 316, 1‐methyl‐5‐(trifluoromethyl)‐1H‐pyrazol‐3‐ol], for which, in the test with A549 cells, the “A549 Cells Alamar Blue” value is given as 95.3 percentage of controls. Also, the “HeLa Cells Alamar Blue” value in the test on HeLa cells (setting [1]) was 111.8 ± 17.2 percentage of controls.

Turning to `O=C1CCC(C(F)(F)F)CC1` [compound 317, 4‐(trifluoromethyl)cyclohexan‐1‐one], the viability at 500 µM worked out at 90.5% in the test with A549 cells and 111 ± 7.2% in the test on HeLa cells (setting [2]).

For the compound `O=C1CCOc2ccc(F)cc21` [compound 318, 6‐fluorochroman‐4‐one], the viability at 500 µM worked out at 99% in the test on A549 cells and 104 ± 16.4% in the test on HeLa cells (setting [2]).

With `OCC1COc2ccccc2O1` (stereo not drawn) [compound 319, 2,3‐dihydro‐1,4‐benzodioxin‐2‐ylmethanol], the “A549 Cells Alamar Blue” value in the test with A549 cells is recorded as 86.4 percentage of controls. The “HeLa Cells Alamar Blue” value in the test with HeLa cells (setting [1]) is 102.6 ± 5.1 percentage of controls.

Take `OCc1ccc2c(c1)OCCO2` [compound 320, 2,3‐dihydro‐1,4‐benzodioxin‐6‐ylmethanol]: the “A549 Cells Alamar Blue” value with A549 cells is 78.8 percentage of controls. Also, the “HeLa Cells Alamar Blue” value in the test with HeLa cells (setting [1]) is 111.9 ± 16.4 percentage of controls.

As to `OCCc1ccc2c(c1)OCO2` [compound 321, 2‐(1,3‐benzodioxol‐5‐yl)ethanol], the viability at 500 µM in the test on A549 cells was found to be 138%; in the test on HeLa cells (setting [2]), 109 ± 5.9%.

`OCc1cccc2c1OCCO2` [compound 322, 2,3‐dihydro‐1,4‐benzodioxin‐5‐ylmethanol]: the “A549 Cells Alamar Blue” value in the test with A549 cells is recorded as 96.4 percentage of controls. Further, in the test with HeLa cells (setting [1]), the “HeLa Cells Alamar Blue” value is 100.4 ± 14.9 percentage of controls.

As for `CC12CC(=O)CC1(C)CC(=O)C2` (stereo not drawn) [compound 324, 3a,6a‐dimethylperhydropentalene‐2,5‐dione], the “A549 Cells Alamar Blue” value with A549 cells was 94.2 percentage of controls. For the same compound, in the test on HeLa cells (setting [1]), the “HeLa Cells Alamar Blue” value is 103.2 ± 21.9 percentage of controls.

In the case of `CN(C(N)=S)c1ccccc1` [compound 325, N‐methyl‐N‐phenylthiourea], the viability at 500 µM came to 82.7% with A549 cells and 33.9 ± 11.6% in the test with HeLa cells (setting [2]). Moreover, the CC50 in the test with HeLa cells came to 415 ± 24 µM.

Take `Cc1ccccc1NC(N)=S` [compound 326, N‐(2‐methylphenyl)thiourea]: the viability at 500 µM with A549 cells came out at 125%; in the test with HeLa cells (read-out: HeLa Cells Alamar Blue, Supplementary Table 1, compound 0.5 mM, percentage of controls, mean ± SD (n=3) or SE (n=2)), 111 ± 8.5%.

As for `CC12CCC(CC1=NO)C2(C)C` (stereo not drawn) [compound 332, 1,7,7‐trimethylbicyclo[2.2.1]heptan‐2‐one oxime], in the test on A549 cells, the “A549 Cells Alamar Blue” value is 93.9 percentage of controls. In addition, the “HeLa Cells Alamar Blue” value in the test with HeLa cells (setting [1]) was 110.6 ± 8.3 percentage of controls.

In the case of `NC(=O)NCc1ccc(F)cc1` [compound 334, N‐(4‐fluorobenzyl)urea], the viability at 500 µM is 91.8% in the test on A549 cells and 112 ± 4.7% in the test with HeLa cells (setting [2]).

Regarding `N#Cc1ccccc1-n1cccc1` [compound 336, 2‐(1H‐pyrrol‐1‐yl)benzonitrile], the viability at 500 µM in the test with A549 cells is 134%; in the test on HeLa cells (setting [2]) it was 68.5 ± 16.3%.

As for `N#Cc1cccc(-c2ccco2)c1` [compound 338, 3‐(2‐furyl)benzonitrile], the viability at 500 µM with A549 cells stood at 57.8%; in the test with HeLa cells (setting [2]), 18.5 ± 15.2%.

Turning to `Oc1nc2ccc(Cl)cc2o1` [compound 342, 6‐chloro‐1,3‐benzoxazol‐2‐ol], the viability at 500 µM came out at 73.9% in the test on A549 cells and 94.3 ± 6.5% with HeLa cells (setting [2]).

Regarding `N#Cc1ccc(-c2ccco2)nc1` [compound 344, 6‐(2‐furyl)nicotinonitrile], the viability at 500 µM in the test on A549 cells worked out at 104%; in the test on HeLa cells (setting [2]) it was 48.9 ± 5%.

Take `O=C(O)C1CC2CC1CCC2O` (stereo not drawn) [compound 345, 2‐hydroxybicyclo[3.2.1]octane‐6‐carboxylic acid]: the “A549 Cells Alamar Blue” value in the test with A549 cells is 127 percentage of controls. In addition, the “HeLa Cells Alamar Blue” value with HeLa cells (setting [1]) is reported as 87.4 ± 13 percentage of controls.

On to `Nc1cccc(-c2cccnc2)c1` [compound 346, 3‐pyridin‐3‐ylaniline], for which the figures for the viability at 500 µM in the test on A549 cells and in the test with HeLa cells (setting [2]) were 98.5% and 73.9 ± 6.1%, respectively.

With `Nc1ccc(-c2cccnc2)cc1` [compound 347, 4‐pyridin‐3‐ylaniline], the figures for the viability at 500 µM with A549 cells and in the test with HeLa cells (setting [2]) were 113% and 79.3 ± 2.8%, respectively.

As for `Nc1ccccc1-c1cccnc1` [compound 348, 2‐pyridin‐3‐ylaniline], the viability at 500 µM in the test on A549 cells was found to be 85.3%; with HeLa cells (setting [2]) it was 18.2 ± 10%. Also, in the test with HeLa cells, the CC50 was 21.8 ± 1.8 µM.

Consider `Cc1ccc(C(=O)O)cc1Cl` [compound 351, 3‐chloro‐4‐methylbenzoic acid], for which the figures for the viability at 500 µM in the test on A549 cells and in the test with HeLa cells (setting [2]) were 112% and 88.2 ± 17.9%, respectively.

For the compound `COC(=O)c1ccccc1Cl` [compound 352, methyl 2‐chlorobenzoate], the viability at 500 µM amounted to 76.4% in the test with A549 cells and 95.8 ± 19% in the test on HeLa cells (setting [2]).

With `COC(=O)c1scc(C)c1N` [compound 354, methyl 3‐amino‐4‐methylthiophene‐2‐carboxylate], in the test on A549 cells, the “A549 Cells Alamar Blue” value was 32.3 percentage of controls. Moreover, the “HeLa Cells Alamar Blue” value in the test with HeLa cells (setting [1]) is listed as 72.8 ± 8.6 percentage of controls.

For `Cc1ccccc1S(N)(=O)=O` [compound 355, 2‐methylbenzene‐1‐sulfonamide], the figures for the viability at 500 µM in the test with A549 cells and in the test with HeLa cells (setting [2]) were 87.9% and 89.1 ± 16.6%, respectively.

`CCCCCSc1nnc[nH]1` [compound 357, 3‐(pentylthio)‐4H‐1,2,4‐triazole]: the results for the viability at 500 µM in the test on A549 cells and in the test on HeLa cells (setting [2]) were 45.3% and 64.5 ± 8.6%, respectively.

Regarding `N#Cc1cnccc1C(F)(F)F` [compound 358, 4‐(trifluoromethyl)nicotinonitrile], the viability at 500 µM came out at 129% in the test with A549 cells and 103 ± 1.7% with HeLa cells (setting [2]).

As to `OCc1scc2c1OCCO2` [compound 361, 2,3‐dihydrothieno[3,4‐b][1,4]dioxin‐5‐ylmethanol], the “A549 Cells Alamar Blue” value in the test on A549 cells is on record as 93.7 percentage of controls. For the same compound, in the test on HeLa cells (setting [1]), the “HeLa Cells Alamar Blue” value is listed as 68.5 ± 12.9 percentage of controls.

Turning to `NCc1ccccc1-n1cccc1` [compound 363, [2‐(1H‐pyrrol‐1‐yl)phenyl]methylamine], the figures for the viability at 500 µM in the test on A549 cells and in the test with HeLa cells (setting [2]) were 45.6% and 42.6 ± 11.7%, respectively.

On to `NCc1cccc(-n2cccc2)c1` [compound 364, 3‐(1H‐pyrrol‐1‐yl)benzylamine], for which the values for the viability at 500 µM in the test with A549 cells and in the test with HeLa cells (setting [2]) were 56.9% and 29.5 ± 12.9%, respectively. Further, the CC50 with HeLa cells amounted to 40.4 ± 1.8 µM.

Regarding `NCc1ccc(-n2cccc2)cc1` [compound 365, 4‐(1H‐pyrrol‐1‐yl)benzylamine], the viability at 500 µM worked out at 94.4% in the test with A549 cells and 50.9 ± 11% with HeLa cells (setting [2]). For the same compound, the CC50 in the test with HeLa cells was 71.8 ± 3.7 µM.

Regarding `CNCc1ccc2ncccc2c1` [compound 366, N‐methyl‐N‐(quinolin‐6‐ylmethyl)amine], the figures for the viability at 500 µM in the test with A549 cells and with HeLa cells (setting [2]) were 74.6% and 64.6 ± 11.4%, respectively.

For `CC(=O)c1ccc(F)c(Cl)c1` [compound 367, 1‐(3‐chloro‐4‐fluorophenyl)ethan‐1‐one], the viability at 500 µM in the test on A549 cells was 58.8%; in the test on HeLa cells (setting [2]) it was 98.7 ± 6.5%.

`Nc1ccc(Cn2ccnc2)cc1` [compound 375, 4‐(1H‐imidazol‐1‐ylmethyl)aniline]: the results for the viability at 500 µM with A549 cells and in the test on HeLa cells (setting [2]) were 90.7% and 88 ± 18.8%, respectively.

Take `Cn1nc(-c2ccccc2)cc1N` [compound 376, 1‐methyl‐3‐phenyl‐1H‐pyrazol‐5‐amine]: the viability at 500 µM came out at 64.7% in the test on A549 cells and 82.6 ± 4.6% with HeLa cells (setting [2]).

Turning to `CSc1ccc(Cl)cc1N` [compound 382, 5‐chloro‐2‐(methylthio)aniline], the viability at 500 µM in the test on A549 cells was determined as 60.7%; in the test on HeLa cells (setting [2]) it was 110 ± 13.3%.

`Cc1onc(-c2ccccc2)c1N` [compound 384, 5‐methyl‐3‐phenyl‐4‐isoxazolamine]: the viability at 500 µM worked out at 75.5% in the test with A549 cells and 80.8 ± 13.4% in the test on HeLa cells (setting [2]).

In the case of `OCc1ccc(-n2cccn2)cc1` [compound 385, [4‐(1H‐pyrazol‐1‐yl)phenyl]methanol], the viability at 500 µM in the test with A549 cells worked out at 118%; in the test with HeLa cells (setting [2]), 83.4 ± 12.4%.

Take `OCc1ccc(-n2ccnc2)cc1` [compound 386, [4‐(1H‐imidazol‐1‐yl)phenyl]methanol]: the viability at 500 µM with A549 cells worked out at 101%; with HeLa cells (setting [2]), 103 ± 15.3%.

For `C#Cc1ccc(OCCCC)cc1` [compound 388, 1‐butoxy‐4‐eth‐1‐ynylbenzene], the viability at 500 µM in the test with A549 cells was 114%; with HeLa cells (setting [2]), 107 ± 8%.

As to `OCc1ncoc1-c1ccccc1` [compound 397, (5‐phenyl‐1,3‐oxazol‐4‐yl)methanol], the values for the viability at 500 µM with A549 cells and with HeLa cells (setting [2]) were 56.4% and 18.2 ± 7.9%, respectively.
